Assay results from ChEMBL document CHEMBL1135334, “Design, synthesis and biological evaluation of cyclic angiotensin II analogues with 3,5 side-chain bridges. Role of C-terminal aromatic residue and ring cluster for activity and implications in the drug design of AT1 non-peptide antagonists” (2002).
Bridge positions count the residues as written; N and C are the ends. Square brackets hold non-standard residues; d marks the D form. Peptide text beside a SMILES is read from it. Sar = CNCC(=O)O

Columns and labels:
Assay type in all cases: functional
Oryctolagus cuniculus [1] = species: Oryctolagus cuniculus; test: Compound was tested for dose-related reduction of the mean blood pressure on boluses of different dose of 2 mg via ear vein; value ranges from 0 to -20
Oryctolagus cuniculus [2] = species: Oryctolagus cuniculus; test: Compound was tested for dose-related reduction of the mean blood pressure on boluses of different dose of 1 mg via ear vein; value ranges from 0 to -20
Oryctolagus cuniculus [3] = test: Compound was tested for dose-dependent hypertensive response in infused anesthetized rabbits at 30 ug/min
Oryctolagus cuniculus [4] = test: Compound was tested for dose-dependent hypertensive response in infused anesthetized rabbits at 10 ug/min
Oryctolagus cuniculus [5] = test: Compound was tested for dose-dependent hypertensive response in infused anesthetized rabbits at 20 ug/min
Oryctolagus cuniculus [6] = species: Oryctolagus cuniculus; test: Compound was tested for dose-related reduction of the mean blood pressure on boluses of different dose of 150 mg via ear vein
Oryctolagus cuniculus [7] = species: Oryctolagus cuniculus; test: Compound was tested for dose-related reduction of the mean blood pressure on boluses of different dose of 75 mg via ear vein
Oryctolagus cuniculus [8] = species: Oryctolagus cuniculus; test: Compound was tested for dose-related reduction of the mean blood pressure on boluses of different dose of 300 mg via ear vein
Oryctolagus cuniculus [9] = test: Compound was tested for dose-dependent hypertensive response in infused anesthetized rabbits at 1 ug/min
Oryctolagus cuniculus [10] = test: Compound was tested for dose-dependent hypertensive response in infused anesthetized rabbits at 3 ug/min
Oryctolagus cuniculus [11] = test: Compound was tested for dose-dependent hypertensive response in infused anesthetized rabbits at 2 ug/min
Oryctolagus cuniculus [12] = species: Oryctolagus cuniculus; test: Compound was tested for dose-related reduction of the mean blood pressure on boluses of different dose of 0.2 mg via ear vein; value ranges from -40 to -60
Oryctolagus cuniculus [13] = species: Oryctolagus cuniculus; test: Compound was tested for dose-related reduction of the mean blood pressure on boluses of different dose of 0.1 mg via ear vein
Oryctolagus cuniculus [14] = species: Oryctolagus cuniculus; test: Compound was tested for dose-related reduction of the mean blood pressure on boluses of different dose of 0.05 mg via ear vein; value ranges from -20 to -40

**Q.** With OCc1nc2ccccc2n1Cc1ccc(-c2ccccc2C2=NC(Cc3ccccc3)N=N2)cc1 (centres undefined) as the compound, how does the “Delta mean blood pressure” value (Oryctolagus cuniculus [1]) read?
**A.** 0

**Q.** What about the “Delta mean blood pressure” value (Oryctolagus cuniculus [2]) of the same compound?
**A.** 0

**Q.** Which results are given for CNCC(=O)N[C@@H](CCCN=C(N)N)C(=O)N[C@H]1CCC(=O)NCCCC[C@@H](C(=O)N[C@@H](Cc2c[nH]cn2)C(=O)N2CCC[C@H]2C(=O)N[C@@H](Cc2ccccc2)C(=O)O)NC(=O)[C@H](Cc2ccc(O)cc2)NC1=O (H-[Sar]REYKHPF-OH; lactam 3-5)?
**A.** Response (Oryctolagus cuniculus [3]): 60%; Response (Oryctolagus cuniculus [4]): 0%; Response (Oryctolagus cuniculus [5]): 40%

**Q.** Which results are given for CC[C@H](C)[C@H](NC(=O)[C@@H]1CCCN1C(=O)[C@H](Cc1c[nH]cn1)NC(=O)[C@@H]1CCCCNC(=O)CC[C@H](NC(=O)[C@H](CCCN=C(N)N)NC(=O)CNC)C(=O)N[C@@H](Cc2ccc(O)cc2)C(=O)N1)C(=O)O (H-[Sar]REYKHPI-OH; lactam 3-5)?
**A.** Delta mean blood pressure (Oryctolagus cuniculus [6]): 0; Delta mean blood pressure (Oryctolagus cuniculus [7]): 0; Delta mean blood pressure (Oryctolagus cuniculus [8]): -20

**Q.** Which Response (Oryctolagus cuniculus [9]) does the source give for CC[C@H](C)[C@H](NC(=O)[C@H](Cc1ccc(O)cc1)NC(=O)[C@@H](NC(=O)[C@H](CCCNC(=N)N)NC(=O)[C@@H](N)CC(=O)O)C(C)C)C(=O)N[C@@H](Cc1cnc[nH]1)C(=O)N1CCC[C@H]1C(=O)N[C@@H](Cc1ccccc1)C(=O)O [ANGIOTENSIN II] here?
**A.** 20%

**Q.** And the Response (Oryctolagus cuniculus [10])?
**A.** 40%

**Q.** And the Response (Oryctolagus cuniculus [11])?
**A.** 20%

**Q.** CCCCc1nc(Cl)c(CO)n1Cc1ccc(-c2ccccc2-c2nnn[nH]2)cc1 [LOSARTAN] was tested. Which “Delta mean blood pressure” value (Oryctolagus cuniculus [12]) did it give?
**A.** -40

**Q.** And the “Delta mean blood pressure” value (Oryctolagus cuniculus [13])?
**A.** -40

**Q.** And the “Delta mean blood pressure” value (Oryctolagus cuniculus [14])?
**A.** -20
